Measurements from ChEMBL document CHEMBL5665443, “Enzyme Inhibitor Single Concentration assay results for EUbOPEN Chemogenomics Library” (2024).
Where “and” joins values, the source holds several entries; their conditions need not be identical. Equal entries are not always repeated.

Columns and labels:
[1] = target: T1, Endonuclease III-like protein 1 (Homo sapiens) (UniProt P78549); conditions: Hit No;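 further: enzyme assay tracking NTHL1 cutting and release of a quenched double-stranded DNA oligo substrate, read as fluorescence at 594 nm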
T1 sequence (whole entry): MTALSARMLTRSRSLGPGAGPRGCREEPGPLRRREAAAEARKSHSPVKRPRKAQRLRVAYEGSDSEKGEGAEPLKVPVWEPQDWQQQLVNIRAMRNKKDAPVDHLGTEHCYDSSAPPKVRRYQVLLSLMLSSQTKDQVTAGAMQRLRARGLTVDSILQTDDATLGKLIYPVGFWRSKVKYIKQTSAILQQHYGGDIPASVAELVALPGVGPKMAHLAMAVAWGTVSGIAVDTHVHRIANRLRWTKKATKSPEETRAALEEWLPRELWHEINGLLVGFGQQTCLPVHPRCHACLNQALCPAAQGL
Description: Inhibition of NTHL1 by quantifying inhibition of NTHL1-mediated cleavage and dissociation of quenched duplex DNA oligonucleotides, measured as fluorescence at 594 nm.

[2] = target: Endonuclease 8-like 1 (Homo sapiens) (UniProt Q96FI4); conditions: Hit No;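 further: fluorescence at 594 nm from quenched duplex DNA oligonucleotides released by NEIL1 cleavage and strand separation, reported as reduction of this enzyme activity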
Sequence of Endonuclease 8-like 1 (Homo sapiens) (Q96FI4 whole entry): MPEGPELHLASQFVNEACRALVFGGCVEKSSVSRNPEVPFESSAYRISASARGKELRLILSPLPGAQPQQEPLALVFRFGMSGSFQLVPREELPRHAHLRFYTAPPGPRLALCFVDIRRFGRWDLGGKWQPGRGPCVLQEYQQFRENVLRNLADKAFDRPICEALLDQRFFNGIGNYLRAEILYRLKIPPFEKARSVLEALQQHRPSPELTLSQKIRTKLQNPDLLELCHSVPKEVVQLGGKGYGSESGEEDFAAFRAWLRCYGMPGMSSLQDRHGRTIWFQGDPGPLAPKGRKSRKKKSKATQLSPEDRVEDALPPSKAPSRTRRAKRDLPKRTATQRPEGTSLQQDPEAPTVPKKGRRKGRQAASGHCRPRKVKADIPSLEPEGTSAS
Description: Inhibition of NEIL1 by quantifying inhibition of NEIL1-mediated cleavage and dissociation of quenched duplex DNA oligonucleotides, measured as fluorescence at 594 nm.

[3] = target: G/T mismatch-specific thymine DNA glycosylase (Homo sapiens) (UniProt Q13569); conditions: Compound Concentration 10.0 uM, Hit No;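 further: human TDG cleavage of quenched duplex DNA oligonucleotides coupled to APE1, strand release read as fluorescence at 594 nm, inhibition of TDG activity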
Sequence of G/T mismatch-specific thymine DNA glycosylase (Homo sapiens) (Q13569 whole entry): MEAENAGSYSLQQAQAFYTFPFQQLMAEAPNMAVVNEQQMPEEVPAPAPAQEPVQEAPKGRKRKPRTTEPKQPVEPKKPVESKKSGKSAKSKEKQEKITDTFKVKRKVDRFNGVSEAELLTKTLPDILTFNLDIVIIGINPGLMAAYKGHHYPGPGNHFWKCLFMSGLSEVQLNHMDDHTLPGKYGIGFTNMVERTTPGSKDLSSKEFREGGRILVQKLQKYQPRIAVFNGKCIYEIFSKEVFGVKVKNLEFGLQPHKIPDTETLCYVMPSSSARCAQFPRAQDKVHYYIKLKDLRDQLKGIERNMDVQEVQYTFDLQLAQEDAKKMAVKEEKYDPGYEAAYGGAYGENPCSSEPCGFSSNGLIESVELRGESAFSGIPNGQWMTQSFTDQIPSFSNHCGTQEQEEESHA
Description: Inhibition of TDG by quantifying inhibition of TDG-mediated cleavage and dissociation of quenched duplex DNA oligonucleotides, measured as fluorescence at 594 nm. To generate a functional strand incision and increase turn-over this assay is coupled to APE1.

[4] = target: Uracil-DNA glycosylase (Homo sapiens) (UniProt P13051); conditions: Hit No;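 further: UNG excision on a quenched double-stranded DNA oligo probe, with APE1 added for strand incision and turnover, read as fluorescence at 594 nm as strands separate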
Sequence of Uracil-DNA glycosylase (Homo sapiens) (P13051 whole entry): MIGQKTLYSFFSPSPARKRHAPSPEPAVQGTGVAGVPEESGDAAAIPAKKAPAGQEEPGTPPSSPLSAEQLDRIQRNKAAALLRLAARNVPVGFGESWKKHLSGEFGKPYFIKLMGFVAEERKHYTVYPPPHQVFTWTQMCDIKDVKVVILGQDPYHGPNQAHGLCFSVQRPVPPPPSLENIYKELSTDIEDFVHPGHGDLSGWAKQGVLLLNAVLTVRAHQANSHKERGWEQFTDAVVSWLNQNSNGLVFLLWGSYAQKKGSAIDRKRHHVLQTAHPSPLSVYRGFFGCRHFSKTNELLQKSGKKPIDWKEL
Description: Inhibition of UNG by quantifying inhibition of UNG-mediated cleavage and dissociation of quenched duplex DNA oligonucleotides, measured as fluorescence at 594 nm. To generate a functional strand incision and increase turn-over this assay is coupled to APE1.

[5] = target: T2, Endonuclease 8-like 2 (Homo sapiens) (UniProt Q969S2); conditions: Hit No;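 further: fluorescence at 594 nm reports NEIL2 cutting and release of a quenched double-stranded DNA oligo substrate, reduced signal read as inhibition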
T2 sequence (whole entry): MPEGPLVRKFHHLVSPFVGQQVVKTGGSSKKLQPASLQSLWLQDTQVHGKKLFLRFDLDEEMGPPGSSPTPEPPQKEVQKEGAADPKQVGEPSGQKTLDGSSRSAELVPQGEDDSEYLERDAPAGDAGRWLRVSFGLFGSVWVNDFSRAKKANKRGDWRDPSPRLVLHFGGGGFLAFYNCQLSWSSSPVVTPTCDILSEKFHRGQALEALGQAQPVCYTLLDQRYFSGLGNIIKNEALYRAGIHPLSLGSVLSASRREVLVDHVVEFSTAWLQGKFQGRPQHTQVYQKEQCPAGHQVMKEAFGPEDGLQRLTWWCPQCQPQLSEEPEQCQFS
Description: Inhibition of NEIL2 by quantifying inhibition of NEIL2-mediated cleavage and dissociation of quenched duplex DNA oligonucleotides, measured as fluorescence at 594 nm.

[6] = target: N-glycosylase/DNA lyase (Homo sapiens) (UniProt O15527); conditions: Hit No;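 further: OGG1 cleavage of a quenched duplex DNA oligonucleotide, coupled to APE1 for strand incision, read as fluorescence at 594 nm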
Sequence of N-glycosylase/DNA lyase (Homo sapiens) (O15527 whole entry): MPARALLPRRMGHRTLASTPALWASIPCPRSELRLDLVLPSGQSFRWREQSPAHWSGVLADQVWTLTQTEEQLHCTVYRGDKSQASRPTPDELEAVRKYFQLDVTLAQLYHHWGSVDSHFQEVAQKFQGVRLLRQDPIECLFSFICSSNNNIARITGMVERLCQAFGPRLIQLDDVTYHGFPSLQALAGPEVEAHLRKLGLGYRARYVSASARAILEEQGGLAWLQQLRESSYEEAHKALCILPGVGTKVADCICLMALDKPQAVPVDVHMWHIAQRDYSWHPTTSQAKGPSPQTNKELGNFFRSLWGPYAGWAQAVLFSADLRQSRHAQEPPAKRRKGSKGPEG
Description: Inhibition of OGG1 by quantifying inhibition of OGG1-mediated cleavage and dissociation of quenched duplex DNA oligonucleotides, measured as fluorescence at 594 nm. To generate a functional strand incision and increase turn-over this assay is coupled to APE1.

[7] = target: T3, Single-strand selective monofunctional uracil DNA glycosylase (Homo sapiens) (UniProt Q53HV7); conditions: Hit No;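 further: enzymatic SMUG1 assay coupled with APE1, reading fluorescence at 594 nm released when a quenched double-stranded DNA oligonucleotide substrate is cleaved and separated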
T3 sequence (whole entry): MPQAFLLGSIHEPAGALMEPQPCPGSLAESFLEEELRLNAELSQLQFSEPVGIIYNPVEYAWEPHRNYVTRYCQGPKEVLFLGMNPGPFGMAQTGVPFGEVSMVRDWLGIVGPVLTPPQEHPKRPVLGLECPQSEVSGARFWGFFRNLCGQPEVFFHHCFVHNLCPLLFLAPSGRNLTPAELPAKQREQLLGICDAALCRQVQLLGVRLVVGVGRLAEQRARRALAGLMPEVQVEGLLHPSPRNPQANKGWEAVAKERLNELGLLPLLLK
Description: Inhibition of SMUG1 by quantifying inhibition of SMUG1-mediated cleavage and dissociation of quenched duplex DNA oligonucleotides, measured as fluorescence at 594 nm. To generate a functional strand incision and increase turn-over this assay is coupled to APE1.

Row | SMILES | inhibition ([1]; Compound Concentration 10.0 uM) | inhibition ([2]; Compound Concentration 10.0 uM) | inhibition [3] | inhibition ([4]; Compound Concentration 10.0 uM) | inhibition ([5]; Compound Concentration 10.0 uM) | inhibition ([6]; Compound Concentration 10.0 uM) | inhibition ([7]; Compound Concentration 10.0 uM) | inhibition ([1]; Compound Concentration 1.0 uM) | inhibition ([2]; Compound Concentration 1.0 uM) | inhibition ([4]; Compound Concentration 1.0 uM) | inhibition ([5]; Compound Concentration 1.0 uM) | inhibition ([6]; Compound Concentration 1.0 uM) | inhibition ([7]; Compound Concentration 1.0 uM)
1 | CC(=O)c1ccc2c(c1)[C@@H]1C=CC[C@@H]1[C@H](c1cc3c(cc1Br)OCO3)N2 | 11.4% | 1.72% | 13.5% | -3.58% | 9.25% | 2.12% | 5.25% |  |  |  |  |  | 
2 | OCCN1CCN(CCCN2c3ccccc3Sc3ccc(Cl)cc32)CC1 | 3.39% | 17.1% | 3.7% | -5.33% | 12.5% | -8.6% | -0.808% |  |  |  |  |  | 
3 | O=C(Nc1ccc(Cl)cc1)Nc1cccc(-c2cccc(N3CCCC3)n2)c1 | -0.275% | 8.84% |  | -9.34% | -4.23% | -1.14% | -0.712% |  |  |  |  |  | 
4 | COc1ncc(F)cc1CNc1ccc(Cc2c[nH]c3ncc(C)cc23)c(F)n1 | -7.58% | 1.33% | 37.9% | 6.92% | 2.39% | 5.69% | 18.6% |  |  |  |  |  | 
5 | COc1cc(OC)c(NC(=O)c2ccc(Cc3cc4c(cc3C)C(C)(C)CCC4(C)C)o2)c(OC)c1 | 19.5% | 7.51% | 1.84% | -5.24% | 14.7% | 2.66% | -2.6% |  |  |  |  |  | 
6 | NCCc1cn(S(=O)(=O)c2c(Cl)nc3sccn23)c2ccccc12 | -1.91% | 6.53% |  | -2.77% | -1.62% | 16.8% | 3.77% |  |  |  |  |  | 
7 | C[C@H]1[C@H]2CC[C@H]3[C@@H]4CC=C5C[C@@H](N(C)C)CC[C@]5(C)[C@H]4CC[C@]23CN1C | 7.05% | -0.649% | 5.99% | -8.6% | -7.72% | -2.15% | 4.86% |  |  |  |  |  | 
8 | NCCCNCCCCNCCC(=O)NCCCCCNC(=O)[C@H](CC(N)=O)NC(=O)Cc1ccc(O)cc1O | -0.258% | 0.898% |  | -1.11% | -3.66% | 0.0747% | -7.3% |  |  |  |  |  | 
9 | Cc1c(P(=S)(c2ccccc2)c2ccccc2)n2ccccc2[n+]1C/C=C/c1ccccc1 | 23.9% | 11.1% | 35.9% | -7.24% | -6.97% | 1.08% | -6.48% |  |  |  |  |  | 
10 | COc1cc(Nc2nccc(-c3cnn4nc(OC)ccc34)n2)cc(C(F)(F)F)c1 | 0.785% | 11.1% | 8.41% | -0.0969% | -0.842% | 8.51% | 1.75% |  |  |  |  |  | 
11 | CCNC1(C(N)=O)CCN(c2ncnc3c2nc(-c2ccccc2Cl)n3-c2ccc(Cl)cc2)CC1 | 17.3% | 1.13% | 11.7% | -6.19% | 3.76% | -3.75% | 12.2% |  |  |  |  |  | 
12 | CN(C(=O)Cc1ccc(Cl)c(Cl)c1)C(CN1CCCC1)c1cccc(OCC(=O)O)c1 (configuration not stated) | 13.7% | -0.5% | -1.52% | -7.78% | -9.22% | -6.71% | -2.65% |  |  |  |  |  | 
13 | S=C(NCCCc1c[nH]cn1)NCCCN(Cc1ccc(Cl)c(Cl)c1)c1ccc(Br)cn1 | 7.05% | -8.51% and -1.24% | -1.74% | -7.82% and -8.52% | -7.72% and 0.265% | -8.08% and 0.522% | 0.354% |  |  |  |  |  | 
14 | COc1ccc(NS(=O)(=O)c2sc3ccc(Cl)cc3c2C)cc1N1CCNCC1 | -3.94% | 16% | 18% | -3.02% | 1.51% | -6.55% | 12% |  |  |  |  |  | 
15 | OC1(c2ccc(Cl)cc2)CCN(Cc2c[nH]c3ccccc23)CC1 | 7.05% | -5.1% | 17.2% | -8.06% | 5.51% | -9.04% | -1.92% |  |  |  |  |  | 
16 | CN(c1ncccc1CNc1ccnc(-c2nc3c(F)c(Cl)ccc3[nH]2)n1)S(C)(=O)=O | 9.15% | 1.59% | 35.5% | -1.37% | -8.38% | -6.69% | 9.82% |  |  |  |  |  | 
17 | N#Cc1ccc(Cn2ccc(NC(=O)Cc3ccc(C4(C(F)(F)F)CC4)cc3)n2)nc1 | 17.1% | 4.9% | -8.44% | -0.478% | -3.66% | -2.87% | -0.24% |  |  |  |  |  | 
18 | Cn1cc(C2=C(c3cn(C4CCN(Cc5ccccn5)CC4)c4ccccc34)C(=O)NC2=O)c2ccccc21 |  |  |  |  |  |  |  | 2.88% | -7.52% | -3.81% | -6.23% | -2.56% | 6.08%
19 | CC(C)(C)c1cc(C(C)(C)C)c(NC(=O)c2c[nH]c3ccccc3c2=O)cc1O | 14.6% | 1.34% |  | 1.6% | 5.25% | -6.32% | 6.2% |  |  |  |  |  | 
20 | C[C@@H](O[C@H]1OCCN(Cc2n[nH]c(=O)[nH]2)[C@H]1c1ccc(F)cc1)c1cc(C(F)(F)F)cc(C(F)(F)F)c1 | -1.01% | 5.88% | 0.716% | -3.75% | 8.5% | -7.13% | -5.17% |  |  |  |  |  | 
21 | CC1=C2C[C@H]3[C@@H](CC=C4C[C@@H](O)CC[C@@]43C)[C@@H]2CC[C@]12O[C@@H]1C[C@H](C)CN[C@H]1[C@H]2C | -6.14% | -3.61% | 5.99% | -9.72% | 1.26% | -3.73% | 2.68% |  |  |  |  |  | 
22 | O=C(N[C@H](Cc1ccc(Cl)cc1)C(=O)N1CCC(Cn2cncn2)(C2CCCCC2)CC1)[C@H]1Cc2ccccc2CN1 | -6.04% | 5.49% |  | -1.71% | 0.159% | 6.85% | 10.8% |  |  |  |  |  | 
23 | C[C@H](Cc1cc2c(c(C(N)=O)c1)N(CCCO)CC2)NCCOc1ccccc1OCC(F)(F)F | -1.01% | -4.21% | 2.34% | -9.87% | -1.48% | -6.28% | 1.13% |  |  |  |  |  | 
24 | O=c1c2cccn2c2ccccc2n1CCCN1CCC(c2ccc(Cl)cc2)CC1 | 6.32% | 10.5% | 2.78% | -8.09% | 7.75% | -2.48% | 5.73% |  |  |  |  |  | 
25 | O=C1O[C@]2(CC[C@H](C(=O)Nc3ccn(-c4ccccc4F)n3)CC2)c2cnccc21 | -1.74% | -8.51% | 1.4% | -8.76% | -7.47% | -9.12% | 3.16% |  |  |  |  |  | 
26 | N=C(N)NCCC[C@@H](NC(=O)C(c1ccccc1)c1ccccc1)C(=O)NCc1ccc(CNC(N)=O)cc1 | 11.3% | 11.1% |  | -1.81% | -2.13% | -4.9% | 0.0989% |  |  |  |  |  | 
27 | Cc1onc(O)c1CC(N)C(=O)O (configuration not stated) | -3.56% | -4.58% | 5.29% | -3.91% | -2.64% | -2.69% | -3.23% |  |  |  |  |  | 
28 | CN(C)S(=O)(=O)c1ccc(NC(=S)N2CCC(C(O)(c3ccccc3)c3ccccc3)CC2)cc1 | 16.6% | -0.797% | -1.66% | -7.47% | 0.265% | -3.65% | 3.26% |  |  |  |  |  | 
29 | CN1C[C@H](C(=O)N[C@]2(C)O[C@@]3(O)[C@@H]4CCCN4C(=O)[C@H](Cc4ccccc4)N3C2=O)C[C@@H]2c3cccc4[nH]cc(c34)C[C@H]21 | 15.8% | 9.88% | 7.37% | -3.4% | 7% | -8.52% | 0.306% |  |  |  |  |  | 
30 | O=C(Nc1ccc(-n2nc(C(F)(F)F)cc2C(F)(F)F)cc1)c1ccncc1F | -4.39% | 3.86% |  | -0.503% | -8.25% | -5.81% | -4.65% |  |  |  |  |  | 
